These results are taken from patent US10577363B2, “Substituted piperidine compounds” (EPIZYME, INC., priority 2014, dated 2020).

The structures appear in SMILES notation.

The target of this assay is SMYD3 (Homo sapiens (Human), UniProt Q9H7B4). The experiment in a line: SMYD3 biochemical assay (SPA, 3H-SAM methylation of MEKK2 protein substrate). The following applies: read-out: SMYD3 Biochem IC50 (μM)*. Summed up:
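SPA methyltransferase format: tag-cleaved human SMYD3, insect-cell GST-MEKK2 protein substrate, 3H-SAM donor, 30 min RT enzyme–compound preincubation, 100 uM cold SAM quench.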
Consider `C[C@H]1CC(NC(=O)c2cc(C3CC3)on2)CCN1C(=O)[C@H]1CC[C@H](N)CO1` (stereo partly drawn) [compound 131, N-((2S)-1-((2R,5S)-5-aminotetrahydro-2H-pyran-2-carbonyl)-2-methylpiperidin-4-yl)-5-cyclopropylisoxazole-3-carboxamide], for which the concentration for half-maximal inhibition (IC50) turned out to be 2.08 µM. For the compound `C[C@H]1CC(NC(=O)c2cc(C3CC3)on2)CCN1C(=O)C1CCCNC1` (stereo partly drawn) [compound 132, 5-cyclopropyl-N-((2S)-2-methyl-1-(piperidine-3-carbonyl)piperidin-4-yl)isoxazole-3-carboxamide], the IC50 was found to be 5.55 µM. As to `C[C@H]1CC(NC(=O)c2cc(C3CC3)on2)CCN1C(=O)C[C@H](O)CCN` (stereo partly drawn) [compound 133, N-((2S)-1-((R)-5-amino-3-hydroxypentanoyl)-2-methylpiperidin-4-yl)-5-cyclopropylisoxazole-3-carboxamide], the IC50 amounted to 6.24 µM. Consider `C[C@@H]1CC(NC(=O)c2cc(C3CC3)on2)CCN1C(=O)C[C@H](O)CCN` (stereo partly drawn) [compound 134, N-((2R)-1-((R)-5-amino-3-hydroxypentanoyl)-2-methylpiperidin-4-yl)-5-cyclopropylisoxazole-3-carboxamide], for which the IC50 stood at 1.86 µM. For `C[C@@H]1CC(NC(=O)c2cc(C3CC3)on2)CCN1C(=O)C1CNCC(O)C1` (stereo partly drawn) [compound 135, 5-cyclopropyl-N-((2R)-1-(5-hydroxypiperidine-3-carbonyl)-2-methylpiperidin-4-yl)isoxazole-3-carboxamide] the value was 2.49 µM.

With `C[C@@H]1CC(NC(=O)c2cc(C3CC3)on2)CCN1C(=O)C1CC12CCNCC2` (stereo partly drawn) [compound 136, 5-cyclopropyl-N-((2R)-2-methyl-1-(6-azaspiro[2.5]octane-1-carbonyl)piperidin-4-yl)isoxazole-3-carboxamide], the IC50 amounted to 0.759 µM. Consider `C[C@@H]1CC(NC(=O)c2cc(C3CC3)on2)CCN1C(=O)[C@H]1CC[C@H](O)CC1` (stereo partly drawn) [compound 137, 5-cyclopropyl-N-((2R)-1-((1r,4R)-4-hydroxycyclohexane-1-carbonyl)-2-methylpiperidin-4-yl)isoxazole-3-carboxamide], for which the half-inhibitory concentration (IC50) amounted to 41.2 µM. Consider `C[C@H]1CC(NC(=O)c2cc(C3CC3)on2)CCN1C[C@H]1CC[C@H](N)CC1` (stereo partly drawn) [compound 138, N-((2S)-1-(((1r,4S)-4-aminocyclohexyl)methyl)-2-methylpiperidin-4-yl)-5-cyclopropylisoxazole-3-carboxamide], for which the IC50 came out at 4.31 µM. For the compound `C[C@@H]1CC(NC(=O)c2cc(C3CC3)on2)CCN1C(=O)[C@H]1CC[C@H](N(C)C)CC1` (stereo partly drawn) [compound 139, 5-cyclopropyl-N-((2R)-1-((1r,4R)-4-(dimethylamino)cyclohexane-1-carbonyl)-2-methylpiperidin-4-yl)isoxazole-3-carboxamide], the IC50 was 1.65 µM. With `CC1CNCCC1CC(=O)N1CCC(NC(=O)c2cc(C3CC3)on2)C[C@H]1C` (stereo partly drawn) [compound 140, 5-cyclopropyl-N-((2R)-2-methyl-1-(2-(3-methylpiperidin-4-yl)acetyl)piperidin-4-yl)isoxazole-3-carboxamide] the figure was 0.842 µM; with `CC1CC(CC(=O)N2CCC(NC(=O)c3cc(C4CC4)on3)C[C@@H]2C)CCN1` (stereo partly drawn) [compound 141, 5-cyclopropyl-N-((2S)-2-methyl-1-(2-(2-methylpiperidin-4-yl)acetyl)piperidin-4-yl)isoxazole-3-carboxamide], 3.53 µM. Turning to `C[C@H]1CC(NC(=O)c2cc(C3CC3)on2)CCN1C(=O)CCCN` (stereo partly drawn) [compound 142, N-((2S)-1-(4-aminobutanoyl)-2-methylpiperidin-4-yl)-5-cyclopropylisoxazole-3-carboxamide], the IC50 was found to be 3.65 µM. For `C[C@@H]1CC(NC(=O)c2cc(C3CC3)on2)CCN1C(=O)[C@H]1CCC[C@@H](N)C1` (stereo partly drawn) [compound 143, N-((2R)-1-((1S,3R)-3-aminocyclohexane-1-carbonyl)-2-methylpiperidin-4-yl)-5-cyclopropylisoxazole-3-carboxamide] the value was 1.99 µM. With `C[C@@H]1CC(NC(=O)c2cc(C3CC3)on2)CCN1C(=O)C1CC2(CCNC2)C1` (stereo partly drawn) [compound 144, 5-cyclopropyl-N-((2R)-2-methyl-1-(6-azaspiro[3.4]octane-2-carbonyl)piperidin-4-yl)isoxazole-3-carboxamide] the figure was 0.546 µM; with `N[C@@H]1CC[C@@H](C(=O)N2CCC(NC(=O)c3cc(C4CC4)on3)CC2)C1` [compound 145, N-(1-((1R,3R)-3-aminocyclopentane-1-carbonyl)piperidin-4-yl)-5-cyclopropylisoxazole-3-carboxamide], 5.98 µM; with `C[C@@H]1CN(C(=O)[C@H]2CC[C@H](N)CC2)CC[C@H]1NC(=O)c1cc(C2CC2)on1` [compound 146, N-((3R,4R)-1-((1r,4R)-4-aminocyclohexane-1-carbonyl)-3-methylpiperidin-4-yl)-5-cyclopropylisoxazole-3-carboxamide], 2.28 µM. For the compound `C[C@@H]1CN(C(=O)CC2CCNCC2)CC[C@H]1NC(=O)c1cc(C2CC2)on1` [compound 147, 5-cyclopropyl-N-((3R,4R)-3-methyl-1-(2-(piperidin-4-yl)acetyl)piperidin-4-yl)isoxazole-3-carboxamide], the IC50 came out at 1.53 µM. For the compound `CC1(NC(=O)c2cc(C3CC3)on2)CCN(C(=O)[C@H]2CC[C@H](N)CC2)CC1` [compound 150, N-(1-((1r,4r)-4-aminocyclohexane-1-carbonyl)-4-methylpiperidin-4-yl)-5-cyclopropylisoxazole-3-carboxamide], the IC50 is 0.91 µM.

For `CCOC(=O)C1CN(C(=O)[C@H]2CC[C@H](N)CC2)CCC1NC(=O)c1cc(C2CC2)on1` (stereo partly drawn) [compound 151, ethyl 1-((1r,4r)-4-aminocyclohexane-1-carbonyl)-4-(5-cyclopropylisoxazole-3-carboxamido)piperidine-3-carboxylate], the IC50 was 3.54 µM. For `N[C@H]1CC[C@H](C(=O)N2CCC(NC(=O)c3cc(C4CC4)on3)C(F)(F)C2)CC1` (stereo partly drawn) [compound 152, N-(1-((1r,4r)-4-aminocyclohexane-1-carbonyl)-3,3-difluoropiperidin-4-yl)-5-cyclopropylisoxazole-3-carboxamide] the value was 2.25 µM; for `CC1(NC(=O)c2cc(C3CC3)on2)CCN(C(=O)CC2CCNCC2)CC1` [compound 153, 5-cyclopropyl-N-(4-methyl-1-(2-(piperidin-4-yl)acetyl)piperidin-4-yl)isoxazole-3-carboxamide], 0.848 µM; for `O=C(NC1CCN(C(=O)CC2CCNCC2)CC1(F)F)c1cc(C2CC2)on1` (stereo not drawn) [compound 154, 5-cyclopropyl-N-(3,3-difluoro-1-(2-(piperidin-4-yl)acetyl)piperidin-4-yl)isoxazole-3-carboxamide], 1.56 µM. For `CC1(C)CN(C(=O)[C@H]2CC[C@H](N)CC2)CCC1NC(=O)c1cc(C2CC2)on1` (stereo partly drawn) [compound 155, N-(1-((1r,4r)-4-aminocyclohexane-1-carbonyl)-3,3-dimethylpiperidin-4-yl)-5-cyclopropylisoxazole-3-carboxamide], the IC50 was determined as 0.575 µM.

As for `CC1(C)CN(C(=O)CC2CCNCC2)CCC1NC(=O)c1cc(C2CC2)on1` (stereo not drawn) [compound 157, 5-cyclopropyl-N-(3,3-dimethyl-1-(2-(piperidin-4-yl)acetyl)piperidin-4-yl)isoxazole-3-carboxamide], the IC50 came to 0.521 µM. With `CC1(NC(=O)c2cc(C3CC3)on2)CCN(C(=O)CCCN)CC1` [compound 158, N-(1-(4-aminobutanoyl)-4-methylpiperidin-4-yl)-5-cyclopropylisoxazole-3-carboxamide], the IC50 worked out at 7.34 µM. On to `CCOC(=O)[C@@H]1CC(NC(=O)c2cc(C3CC3)on2)CCN1C(=O)CCCN` (stereo partly drawn) [compound 159, ethyl (2S)-1-(4-aminobutanoyl)-4-(5-cyclopropylisoxazole-3-carboxamido)piperidine-2-carboxylate], for which the IC50 was found to be 25.2 µM. With `CCOC(=O)C1CN(C(=O)CCCN)CCC1NC(=O)c1cc(C2CC2)on1` (stereo not drawn) [compound 160, ethyl 1-(4-aminobutanoyl)-4-(5-cyclopropylisoxazole-3-carboxamido)piperidine-3-carboxylate] the figure was 2.23 µM.

Regarding `CC1(C)CN(C(=O)CCCN)CCC1NC(=O)c1cc(C2CC2)on1` (stereo not drawn) [compound 161, N-(1-(4-aminobutanoyl)-3,3-dimethylpiperidin-4-yl)-5-cyclopropylisoxazole-3-carboxamide], the IC50 came out at 1.25 µM. For `N[C@H]1CC[C@H](C(=O)N2CCC(NC(=O)c3cc(C4CC4)on3)C[C@H]2c2ccccc2)CC1` (stereo partly drawn) [compound 162, N-((2S)-1-((1r,4S)-4-aminocyclohexane-1-carbonyl)-2-phenylpiperidin-4-yl)-5-cyclopropylisoxazole-3-carboxamide] the value was over 10 µM; for `N[C@H]1CC[C@H](C(=O)N2CCC(NC(=O)c3cc(C4CC4)on3)C[C@@H]2c2ccccc2)CC1` (stereo partly drawn) [compound 163, N-((2R)-1-((1r,4R)-4-aminocyclohexane-1-carbonyl)-2-phenylpiperidin-4-yl)-5-cyclopropylisoxazole-3-carboxamide], 7.17 µM; for `C[C@@H]1CC(NC(=O)c2cc(C3CC3)on2)CCN1C(=O)C(C)(C)C1CCNCC1` (stereo partly drawn) [compound 164, 5-cyclopropyl-N-((2R)-2-methyl-1-(2-methyl-2-(piperidin-4-yl)propanoyl)piperidin-4-yl)isoxazole-3-carboxamide], 5.91 µM. For the compound `C[C@H]1CC(NC(=O)c2cc(C3CC3)on2)CCN1C(=O)C(C)(C)C1CCNCC1` (stereo partly drawn) [compound 165, 5-cyclopropyl-N-((2S)-2-methyl-1-(2-methyl-2-(piperidin-4-yl)propanoyl)piperidin-4-yl)isoxazole-3-carboxamide], the IC50 turned out to be 4.73 µM. For `CC1CC(CC(=O)N2CCC(NC(=O)c3cc(C4CC4)on3)C[C@H]2C)CCN1` (stereo partly drawn) [compound 166, 5-cyclopropyl-N-((2R)-2-methyl-1-(2-(2-methylpiperidin-4-yl)acetyl)piperidin-4-yl)isoxazole-3-carboxamide], the IC50 stood at 0.506 µM.
